Consider 27 compounds from ChEMBL document CHEMBL1149715, “Inhibition of the Mycobacterium tuberculosis enoyl acyl carrier protein reductase InhA by arylamides” (Bioorg Med Chem, 2007).

The target in experiment [1] is T1, Enoyl-[acyl-carrier-protein] reductase [NADH] (Mycobacterium tuberculosis, UniProt P9WGR1).
T1 sequence (P9WGR1 whole entry): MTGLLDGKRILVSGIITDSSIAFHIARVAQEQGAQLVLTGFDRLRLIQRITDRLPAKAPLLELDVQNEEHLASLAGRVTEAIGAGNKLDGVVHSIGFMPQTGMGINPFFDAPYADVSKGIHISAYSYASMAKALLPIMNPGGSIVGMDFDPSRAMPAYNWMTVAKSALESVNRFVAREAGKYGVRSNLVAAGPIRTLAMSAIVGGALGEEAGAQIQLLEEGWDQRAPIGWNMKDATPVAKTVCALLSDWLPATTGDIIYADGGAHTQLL
Description: Inhibition of Mycobacterium tuberculosis InhA

The subject of experiment [2] is Mycobacterium tuberculosis. The experiment is described as follows: Antibacterial activity against Mycobacterium tuberculosis H37Rv by Alamar blue assay. The experiment is classed as functional. On the technique in general: Alamar Blue is a resazurin reagent that responds to reducing activity.

Converted amounts (≈) assume the structure as drawn.

A word on the IC50: it is the concentration that gives 50% inhibition. In turn, `Cc1ccc(C(=O)N2CCN(c3ccccc3)CC2)cc1` displayed an IC50 in experiment [1] of 16.6 µM.
In turn, `Cc1cccc(C(=O)N2CCN(c3cccc(Cl)c3)CC2)c1` came in with an IC50 in experiment [1] of 9.43 µM.
In the case of `Cc1ccc(C(=O)N2CCN(c3cccc(Cl)c3)CC2)cc1C`, the IC50 in experiment [1] stood at 0.99 µM.
In experiment [1], `O=C(c1ccc(F)cc1)N1CCN(c2cccc(Cl)c2)CC1` had an IC50 of 9.74 µM.
The same measure, in the same setting: in the case of `Cc1ccc(C(=O)N2CCN(c3cccc(C(F)(F)F)c3)CC2)cc1C` it was 1.85 µM; in that of `CC(C)(C)c1ccc(C(=O)N2CCN(c3cccc(Cl)c3)CC2)cc1`, greater than 100 µM.
On the same count and under the same terms, in the case of `CC(C)(C)c1ccc(C(=O)N2CCN(c3cccc(C(F)(F)F)c3)CC2)cc1` it was greater than 100 µM.
On the same count and under the same terms, then `O=C(c1cccc(Cl)c1)N1CCN(c2cccc(Cl)c2)CC1`, with 6.73 µM.
On to `O=C(c1ccc(Cl)c(Cl)c1)N1CCN(c2ccccc2)CC1`, for which the midpoint of inhibition in experiment [1], the IC50, lay at 17.6 µM.
The same measure, in the same setting: then `O=C(c1ccccc1)N1CCN(Cc2ccccc2)CC1`, with 31.5 µM.
Same read-out and setting: then `O=C(c1cccc(Cl)c1)N1CCC(Cc2ccccc2)CC1`, with 7.74 µM; and `Cc1ccc(C(=O)N2CCC(Cc3ccccc3)CC2)cc1`, with 5.16 µM.
Still for that read-out and setting: in the case of `Cc1cccc(C(=O)N2CCC(Cc3ccccc3)CC2)c1` it was 7.39 µM; in that of `O=C(c1ccccc1)N1CCN(C2c3ccccc3-c3ccccc32)CC1`, 0.09 µM; in that of `O=C(c1ccccc1)N1CCN(c2ccccc2)CC1`, 38.9 µM.
By MIC is commonly meant the smallest concentration in the dilution series that meets the test's criterion for growth inhibition. Take `O=C(c1ccc2[nH]ccc2c1)N1CCN(C(c2ccc(F)cc2)c2ccc(F)cc2)CC1`: the IC50 in experiment [1] was 1.04 µM. In experiment [2], inhibition of growth (MIC) required 62.5 µM (≈ 27 µg/mL).
Consider `Cc1ccc(C(=O)N2CCN(C(c3ccc(F)cc3)c3ccc(F)cc3)CC2)cc1`, for which, in experiment [1], the IC50 worked out at 1.89 µM.
On to `O=C(c1ccccc1)N1CCN(C(c2ccc(F)cc2)c2ccc(F)cc2)CC1`, for which the IC50 in experiment [1] worked out at 2.04 µM. Besides, 125 µM (≈ 49.1 µg/mL) was the least that counted as inhibitory in experiment [2] (MIC).
Compound `Cc1ccc(C(=O)N2CCN(C3c4ccccc4-c4ccccc43)CC2)cc1` came in with an IC50 in experiment [1] of 0.4 µM.
Still for that read-out and setting: then `CC(C)c1ccc(C(=O)N2CCN(c3cccc(Cl)c3)CC2)cc1`, with greater than 100 µM; and `O=C(c1ccccc1F)N1CCN(c2cccc(Cl)c2)CC1`, with 13.9 µM.
With `Cc1ccc(C(=O)N2CCN(c3cccc(C(F)(F)F)c3)CC2)cc1`, it took 6.26 µM to reach half-maximal inhibition in experiment [1] (IC50).
`Cc1cccc(C(=O)N2CCN(c3ccc([N+](=O)[O-])cc3)CC2)c1` registered an IC50 in experiment [1] of 15.5 µM. In experiment [2], this compound returned a minimum inhibitory concentration (MIC) of 125 µM (≈ 40.7 µg/mL).
Compound `Cc1ccc(N2CCN(C(=O)c3ccc(C(C)(C)C)cc3)CC2)cc1Cl` returned an IC50 in experiment [1] greater than 100 µM.
On to `O=C(c1ccc(Cl)c(Cl)c1)N1CCN(c2cccc(Cl)c2)CC1`, for which the IC50 in experiment [1] was 6.05 µM.
Regarding `Cc1ccc(C(=O)N2CCN(c3cccc(Cl)c3)CC2)cc1`, in experiment [1], half-maximal inhibition (IC50) was put at 3.07 µM. Compared with the last compound, the IC50 is about 2-fold lower.
Still for that read-out and setting: in the case of `O=C(c1ccccc1F)N1CCC(Cc2ccccc2)CC1` it was 14.1 µM.
